According to patent publication EP0369657A2, “Chromogenic substrate for esterase and immunoassay using same” (Becton Dickinson and Company, priority 1988, dated 1990):

Tested on: rabbit liver esterase (RLE)
Assay: Stopping of DCIPB color formation in the dual enzyme assay for Influenza A
Type: biochemical
Conditions: added after five minute incubation with DCIPB; TFAP as 40 µL of 1 mM in 50 mM Tris, pH 7.5; read at 620 nm
Experimental: A mixture of the blocked inhibitor from Example II (1 x 10⁻⁴M) and rabbit liver esterase (RLE) (5 x 10⁻⁹M) in 50 mM diethanolamine (DEOA), pH 9.0 was added to each well (150 µL), and incubated at room temperature for 20 minutes.
A solution of DCIPB (0.35 mM in 50 mM Tris, pH 7.5, containing 20% methanol) was added to each well (150 µL). After a five minute incubation, 40 µL of a solution of 1 mM 1,1,1-trifluoroacetophenone (TFAP) in 50 mM Tris, pH 7.5, was added to stop the reaction.
The same effect was achieved by the addition of free inhibitor (product B from Example II). After "stopping," test wells having a high concentration of antigen remained colorless for several hours.

SMILES: O=C(c1ccccc1)C(F)(F)F [1,1,1-trifluoroacetophenone (TFAP), 1,1,1-trifluoroacetophenone]
- effect on color formation process: stopped the color formation process

SMILES: O=C(CCc1ccc(O)cc1)C(F)(F)F [compound 3, 1,1,1-trifluoro-4-(4-hydroxyphenyl)-2-butanone]
- effect on color formation process: same effect
